System: SNU16 cells
Assay: SNU16 Cancer Cell Line Proliferation Assay
Assay type: cell-based
Settings: Homo sapiens; SNU-16 cells
Method in brief: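 SNU16 cells were seeded, held 24 h at 37 degrees, then dosed with an 11-point 3-fold dilution series prepared from a 10 mM DMSO stock. After 96 h incubation, viability was read by CellTiter Glo luminescence.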

IC50 [nM] | SMILES
≤ 100 | C=C(C)C(=O)Nc1ccc(-c2c(-c3cc(F)c(Oc4ncccn4)c(F)c3)c3c(N)ncnc3n2C)cc1 [Example 110]
250 to 1000 | C[C@@H](Cl)C(=O)Nc1ccc(-c2c(-c3ccc(C(=O)N4CCCC4)cc3)c3c(N)ncnc3n2C)cc1 (single isomer, unassigned) [Example 559]
≤ 100 | C=CC(=O)N1CCC(c2c(-c3ccc(Oc4ccccn4)cc3)c3c(N)ncnc3n2C)CC1 [Example 701]
250 to 1000 | C=C(C)C(=O)Nc1ccc(-c2c(-c3ccc(Cn4cccn4)cc3)c3c(N)ncnc3n2C)cc1 [Example 244]
250 to 1000 | C=CC(=O)N1CCC(c2c(-c3cnn(CC4CCN(C(C)=O)CC4)c3)c3c(N)ncnc3n2C)C1 (centres unmarked) [Example 780]
100 to 250 | C=CC(=O)N1CCC(c2c(-c3ccn(Cc4ccccc4)c(=O)c3)c3c(N)ncnc3n2C)C1 (centres unmarked) [Example 792]
≤ 100 | C=CC(=O)N1CCC(c2c(-c3ccc(Cn4ccc(C)n4)cc3)c3c(N)ncnc3n2C)C1 (centres unmarked) [Example 776]
≤ 100 | C=CC(=O)N1CC=C(c2c(-c3ccc(Oc4cccc(C)n4)cc3)c3c(N)ncnc3n2C)CC1 [Example 656]
250 to 1000 | C=C(C)C(=O)Nc1ccc(-c2c(-c3ccc(C(=O)N(C)C)nc3)c3c(N)ncnc3n2C)cc1 [Example 143]
≤ 100 | C=C(C)C(=O)Nc1ccc(-c2c(C3=CCC(C(=O)N4CC5CCC(C5)C4)CC3)c3c(N)ncnc3n2C)cc1 (centres unmarked) [Example 387]
≤ 100 | C=C(C)C(=O)Nc1ccc(-c2c(-c3ccc(C(=O)NCC4CCC4)nc3)c3c(N)ncnc3n2C)cc1 [Example 399]
≤ 100 | C=CC(=O)N1CC=C(c2c(-c3ccc(Oc4ccccn4)c(OC)c3)c3c(N)ncnc3n2C)CC1 [Example 676]
≤ 100 | C=C(C)C(=O)Nc1ccc(-c2c(-c3ccc(Oc4cncc(C)n4)c(F)c3)c3c(N)ncnc3n2C)cc1 [Example 492]
≤ 100 | C=C(C)C(=O)Nc1ccc(-c2c(-c3ccc(C(=O)NCC(C)(C)OC)c(F)c3)c3c(N)ncnc3n2C)cc1 [Example 416]
≤ 100 | C=C(C)C(=O)Nc1ccc(-c2c(-c3ccc(Oc4cccc(CO)n4)cc3)c3c(N)ncnc3n2C)cc1 [Example 418]
100 to 250 | C=CC(=O)N1CCC(c2c(-c3ccc(COc4ccccc4)cc3)c3c(N)ncnc3n2C)C1 (centres unmarked) [Example 729]
≤ 100 | C=CC(=O)N1CC=C(c2c(-c3ccc(Oc4ncccn4)c(OC)c3)c3c(N)ncnc3n2C)CC1 [Example 674]
≤ 100 | C=CC(=O)Nc1ccc(-c2c(-c3ccc(C(=O)N4CCCC4)c(OC)c3)c3c(N)ncnc3n2C)cc1 [Example 161]
≤ 100 | C=C(C)C(=O)Nc1ccc(-c2c(-c3ccc(Oc4cccc(C)n4)cc3)c3c(N)ncnc3n2C)c(F)c1 [Example 341]
≤ 100 | C=C(C)C(=O)Nc1ccc(-c2c(-c3ccc(Oc4nccc(C)n4)c(C)c3)c3c(N)ncnc3n2C)cc1 [Example 484]
250 to 1000 | C=CC(=O)N1CCC(c2c(-c3ccc(CN4CCCS4(=O)=O)cc3)c3c(N)ncnc3n2C)C1 (centres unmarked) [Example 797]
250 to 1000 | C=C(C)C(=O)Nc1ccc(-c2c(-c3ccc(Oc4cccc(C)n4)c(OCCOC)c3)c3c(N)ncnc3n2C)cc1 [Example 378]
250 to 1000 | C=C(C)C(=O)Nc1ccc(-c2c(-c3ccc(Oc4nccc(C)n4)cc3C(F)F)c3c(N)ncnc3n2C)cc1 [Example 571]
250 to 1000 | C=CC(=O)N1CCC(c2c(-c3ccccc3)c3c(N)ncnc3n2C)C1 (centres unmarked) [Example 700]
≤ 100 | C=C(C)C(=O)Nc1ccc(-c2c(-c3ccc(Oc4cccc(C)n4)cc3)c3c(N)ncnc3n2CCO)cc1 [Example 91]
≤ 100 | C=CC(=O)Nc1ccc(-c2c(-c3ccc(Oc4ncc(Cl)cn4)cc3)c3c(N)ncnc3n2C)cc1 [Example 103]
≤ 100 | C=C(C)C(=O)Nc1ccc(-c2c(-c3ccc(C(=O)NC4CCC4)cc3)c3c(N)ncnc3n2C)cc1 [Example 265]
≤ 100 | C=CC(=O)Nc1ccc(-c2c(-c3ccc(C(=O)N4CCCC4)cc3)c3c(N)ncnc3n2C)c(F)c1 [Example 213]

Target: FGFR2 (Homo sapiens (Human), UniProt P21802)
Sequence (P21802 22-821): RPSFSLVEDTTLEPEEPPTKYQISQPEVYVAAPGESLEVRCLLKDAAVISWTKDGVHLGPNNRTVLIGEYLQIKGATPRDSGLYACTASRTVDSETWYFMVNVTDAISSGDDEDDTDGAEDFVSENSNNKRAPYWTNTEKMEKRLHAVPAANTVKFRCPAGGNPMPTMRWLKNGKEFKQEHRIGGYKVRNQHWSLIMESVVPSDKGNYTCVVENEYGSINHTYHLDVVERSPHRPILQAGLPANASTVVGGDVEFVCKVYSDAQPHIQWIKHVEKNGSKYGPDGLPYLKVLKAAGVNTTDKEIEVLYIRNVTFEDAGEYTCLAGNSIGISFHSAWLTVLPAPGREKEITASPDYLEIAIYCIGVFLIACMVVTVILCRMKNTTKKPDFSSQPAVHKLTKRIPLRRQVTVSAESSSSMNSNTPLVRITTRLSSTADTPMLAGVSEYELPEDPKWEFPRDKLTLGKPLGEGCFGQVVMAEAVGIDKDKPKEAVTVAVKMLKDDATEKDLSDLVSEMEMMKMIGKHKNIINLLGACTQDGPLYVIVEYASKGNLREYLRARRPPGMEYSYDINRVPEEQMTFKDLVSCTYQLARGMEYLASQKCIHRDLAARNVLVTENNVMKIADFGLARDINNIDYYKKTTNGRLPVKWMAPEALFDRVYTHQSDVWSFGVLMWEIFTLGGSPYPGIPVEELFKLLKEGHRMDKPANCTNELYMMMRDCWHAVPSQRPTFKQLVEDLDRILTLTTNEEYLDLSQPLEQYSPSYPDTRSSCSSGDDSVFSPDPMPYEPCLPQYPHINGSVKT
Assay: FGFR2 Biochemical Caliper Assay
Settings: not given
Protocol: Compounds of the present invention were also tested in a FGFR2 Biochemical Caliper Assay. Compounds were prepared in 10 mM DMSO solution and serially diluted into 11 concentrations by 3-fold dilution. […] 5 uL of ATP solution (100 uM) was added to start the reaction and the plate was incubated for 90 minutes, then 70 uL of stopping buffer (0.5M EDTA) was added to terminate the reaction. Each well was analyzed using EZ reader.

IC50 [nM] | SMILES
< 100 | C=C(C)C(=O)Nc1ccc(-c2c(-c3cc(F)c(Oc4ncccn4)c(F)c3)c3c(N)ncnc3n2C)cc1 [Example 110]
250 to 1000 | C[C@@H](Cl)C(=O)Nc1ccc(-c2c(-c3ccc(C(=O)N4CCCC4)cc3)c3c(N)ncnc3n2C)cc1 (single isomer, unassigned) [Example 559]
< 100 | C=CC(=O)N1CCC(c2c(-c3ccc(Oc4ccccn4)cc3)c3c(N)ncnc3n2C)CC1 [Example 701]
1000 to 100000 | C=C(C)C(=O)Nc1ccc(-c2c(-c3ccc(Cn4cccn4)cc3)c3c(N)ncnc3n2C)cc1 [Example 244]
250 to 1000 | C=CC(=O)N1CCC(c2c(-c3cnn(CC4CCN(C(C)=O)CC4)c3)c3c(N)ncnc3n2C)C1 (centres unmarked) [Example 780]
100 to 250 | C=CC(=O)N1CCC(c2c(-c3ccn(Cc4ccccc4)c(=O)c3)c3c(N)ncnc3n2C)C1 (centres unmarked) [Example 792]
< 100 | C=CC(=O)N1CCC(c2c(-c3ccc(Cn4ccc(C)n4)cc3)c3c(N)ncnc3n2C)C1 (centres unmarked) [Example 776]
< 100 | C=CC(=O)N1CC=C(c2c(-c3ccc(Oc4cccc(C)n4)cc3)c3c(N)ncnc3n2C)CC1 [Example 656]
1000 to 100000 | C=C(C)C(=O)Nc1ccc(-c2c(-c3ccc(C(=O)N(C)C)nc3)c3c(N)ncnc3n2C)cc1 [Example 143]
100 to 250 | C=C(C)C(=O)Nc1ccc(-c2c(C3=CCC(C(=O)N4CC5CCC(C5)C4)CC3)c3c(N)ncnc3n2C)cc1 (centres unmarked) [Example 387]
100 to 250 | C=C(C)C(=O)Nc1ccc(-c2c(-c3ccc(C(=O)NCC4CCC4)nc3)c3c(N)ncnc3n2C)cc1 [Example 399]
< 100 | C=CC(=O)N1CC=C(c2c(-c3ccc(Oc4ccccn4)c(OC)c3)c3c(N)ncnc3n2C)CC1 [Example 676]
< 100 | C=C(C)C(=O)Nc1ccc(-c2c(-c3ccc(Oc4cncc(C)n4)c(F)c3)c3c(N)ncnc3n2C)cc1 [Example 492]
< 100 | C=C(C)C(=O)Nc1ccc(-c2c(-c3ccc(C(=O)NCC(C)(C)OC)c(F)c3)c3c(N)ncnc3n2C)cc1 [Example 416]
< 100 | C=C(C)C(=O)Nc1ccc(-c2c(-c3ccc(Oc4cccc(CO)n4)cc3)c3c(N)ncnc3n2C)cc1 [Example 418]
100 to 250 | C=CC(=O)N1CCC(c2c(-c3ccc(COc4ccccc4)cc3)c3c(N)ncnc3n2C)C1 (centres unmarked) [Example 729]
< 100 | C=CC(=O)N1CC=C(c2c(-c3ccc(Oc4ncccn4)c(OC)c3)c3c(N)ncnc3n2C)CC1 [Example 674]
< 100 | C=CC(=O)Nc1ccc(-c2c(-c3ccc(C(=O)N4CCCC4)c(OC)c3)c3c(N)ncnc3n2C)cc1 [Example 161]
< 100 | C=C(C)C(=O)Nc1ccc(-c2c(-c3ccc(Oc4cccc(C)n4)cc3)c3c(N)ncnc3n2C)c(F)c1 [Example 341]
< 100 | C=C(C)C(=O)Nc1ccc(-c2c(-c3ccc(Oc4nccc(C)n4)c(C)c3)c3c(N)ncnc3n2C)cc1 [Example 484]
250 to 1000 | C=CC(=O)N1CCC(c2c(-c3ccc(CN4CCCS4(=O)=O)cc3)c3c(N)ncnc3n2C)C1 (centres unmarked) [Example 797]
1000 to 100000 | C=C(C)C(=O)Nc1ccc(-c2c(-c3ccc(Oc4cccc(C)n4)c(OCCOC)c3)c3c(N)ncnc3n2C)cc1 [Example 378]
1000 to 100000 | C=C(C)C(=O)Nc1ccc(-c2c(-c3ccc(Oc4nccc(C)n4)cc3C(F)F)c3c(N)ncnc3n2C)cc1 [Example 571]
1000 to 100000 | C=CC(=O)N1CCC(c2c(-c3ccccc3)c3c(N)ncnc3n2C)C1 (centres unmarked) [Example 700]
< 100 | C=C(C)C(=O)Nc1ccc(-c2c(-c3ccc(Oc4cccc(C)n4)cc3)c3c(N)ncnc3n2CCO)cc1 [Example 91]
< 100 | C=CC(=O)Nc1ccc(-c2c(-c3ccc(Oc4ncc(Cl)cn4)cc3)c3c(N)ncnc3n2C)cc1 [Example 103]
< 100 | C=C(C)C(=O)Nc1ccc(-c2c(-c3ccc(C(=O)NC4CCC4)cc3)c3c(N)ncnc3n2C)cc1 [Example 265]
< 100 | C=CC(=O)Nc1ccc(-c2c(-c3ccc(C(=O)N4CCCC4)cc3)c3c(N)ncnc3n2C)c(F)c1 [Example 213]
